# Test results published in patent US7223751B2, “Sulfonamide derivatives, intermediate thereof, its preparation methods, and pharmaceutical composition comprising the same” (Kolon Ind. Inc., priority 2001, dated 2007).
# Experiments:
# MMP-9 = MMP-9 (Homo sapiens, UniProt P14780); assay: MMP inhibiting activity, fluorescence assay; type: biochemical; conditions: read-out: Enzyme inhibiting constant IC50 MMP-9
# Procedure: (§1) Inhibitory activities of all the enzymes were measured similarly to the MMP-2 activity measuring method shown below. Prior to measuring, proMMP-2 was treated with 1 mM p-aminophenyl mercuricacetate at 37° C. for 45 minutes to activate it. The ProMMP-9 was activated to an enzyme with MMP-3, and stored at −80° C. until used.
# (§2) MMP activities were measured by fluorescence assay by changing a microtiter plate formate according to the reported method (Knight, C. G., Willenbrock, F., Murphy, G. A., FEBS Lett. 1992, 296, 263-266). On a dynatech MicroFLUOR plate, a buffer solution comprising 50 Mm Tris-HCl pH 7.5, 10 mM CaCl2, 0.15 M NaCl, 0.05% Brij, and 1-8 μM of a substrate (Mca-Pro-Leu-Gly-Leu-Dpa-Ala-Arg-NH2), and various concentrations of inhibitors were introduced, and it was reacted with activated enzymes at 37° C. for 20-30 minutes. Reaction was terminated by putting the reactant in 50 mM EDTA, and then fluorescence was measured with a spectrofluorometer attached to a microplate reader (λex 328 nm, λ em 393 nm). The inhibiting activity degree was indicated by an IC50 value, which is a concentration inhibiting activity by 50% compared to the control.
# MMP-13 = MMP-13 (Homo sapiens, UniProt P45452); assay: MMP inhibiting activity, fluorescence assay; type: biochemical; conditions: read-out: Enzyme inhibiting constant IC50 MMP-13
# Procedure: as §1, §2
# MMP-1 = biological target: T1, MMP-1 (Homo sapiens, UniProt P03956); assay: MMP inhibiting activity, fluorescence assay; type: biochemical; conditions: read-out: Enzyme inhibiting constant IC50 MMP-1
# T1 sequence (P03956 100-469): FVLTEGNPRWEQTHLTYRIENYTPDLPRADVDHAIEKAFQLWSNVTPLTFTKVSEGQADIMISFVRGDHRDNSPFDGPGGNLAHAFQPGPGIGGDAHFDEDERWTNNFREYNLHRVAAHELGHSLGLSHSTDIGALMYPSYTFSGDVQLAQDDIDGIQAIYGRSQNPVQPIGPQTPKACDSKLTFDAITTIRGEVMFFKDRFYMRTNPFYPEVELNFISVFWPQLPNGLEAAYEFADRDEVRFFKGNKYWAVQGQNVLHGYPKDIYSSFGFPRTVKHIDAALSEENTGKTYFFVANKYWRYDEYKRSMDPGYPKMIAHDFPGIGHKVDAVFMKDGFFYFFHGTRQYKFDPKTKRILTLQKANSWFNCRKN
# Procedure: as §1, §2
# MMP-2 = biological target: T2, MMP-2 (Homo sapiens, UniProt P08253); assay: MMP inhibiting activity, fluorescence assay; type: biochemical; conditions: read-out: Enzyme inhibiting constant IC50 MMP-2
# T2 sequence (P08253 110-660): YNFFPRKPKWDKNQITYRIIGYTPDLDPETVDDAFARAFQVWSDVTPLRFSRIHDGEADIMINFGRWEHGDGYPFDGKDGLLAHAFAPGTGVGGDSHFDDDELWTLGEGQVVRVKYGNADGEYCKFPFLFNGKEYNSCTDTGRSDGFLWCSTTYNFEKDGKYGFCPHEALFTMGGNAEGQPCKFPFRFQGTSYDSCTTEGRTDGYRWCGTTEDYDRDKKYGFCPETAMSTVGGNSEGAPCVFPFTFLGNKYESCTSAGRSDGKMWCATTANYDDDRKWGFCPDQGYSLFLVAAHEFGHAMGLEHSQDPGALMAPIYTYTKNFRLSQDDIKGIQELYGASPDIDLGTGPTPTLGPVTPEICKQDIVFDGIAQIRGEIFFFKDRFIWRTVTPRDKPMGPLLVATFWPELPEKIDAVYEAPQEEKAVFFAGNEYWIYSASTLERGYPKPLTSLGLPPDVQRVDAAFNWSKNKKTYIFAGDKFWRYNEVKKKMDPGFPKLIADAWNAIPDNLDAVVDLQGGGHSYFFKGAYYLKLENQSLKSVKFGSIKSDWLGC
# Procedure: as §1, §2
# [1] = tested on: HUVEC (human umbilical vein endothelial cell) cells; assay: Tube formation activity on matrigel; type: cell-based; parameters: key: −: control; ±: tube almost resembles control; +: inhibition; ++: significant inhibition; +++: complete inhibition; conditions: 16-24 hours
# Procedure: In a culture flask previously coated with gelatin, HUVEC (human umbilical vein endothelial cell) cells cultured with a M199 medium (containing 20% FBS, 3 ng/ml bFGF, 100 μg/ml heparin) were treated with trypsin/EDTA, and then number of cells are counted so that number of cells may be 2×10^4 cells/well in a 96-well plate previously coated with matrigel. Samples were then added and cultured in a CO2 culture medium at 37° C. for 16-24 hours.
# MMP-14 = MMP-14 (Homo sapiens, UniProt P50281); assay: MMP inhibiting activity, fluorescence assay; type: biochemical; conditions: read-out: Enzyme inhibiting constant IC50 MMP-14
# Procedure: as §1, §2
# MMP-9, sequence (P14780 107-707 limits assumed, species assumed): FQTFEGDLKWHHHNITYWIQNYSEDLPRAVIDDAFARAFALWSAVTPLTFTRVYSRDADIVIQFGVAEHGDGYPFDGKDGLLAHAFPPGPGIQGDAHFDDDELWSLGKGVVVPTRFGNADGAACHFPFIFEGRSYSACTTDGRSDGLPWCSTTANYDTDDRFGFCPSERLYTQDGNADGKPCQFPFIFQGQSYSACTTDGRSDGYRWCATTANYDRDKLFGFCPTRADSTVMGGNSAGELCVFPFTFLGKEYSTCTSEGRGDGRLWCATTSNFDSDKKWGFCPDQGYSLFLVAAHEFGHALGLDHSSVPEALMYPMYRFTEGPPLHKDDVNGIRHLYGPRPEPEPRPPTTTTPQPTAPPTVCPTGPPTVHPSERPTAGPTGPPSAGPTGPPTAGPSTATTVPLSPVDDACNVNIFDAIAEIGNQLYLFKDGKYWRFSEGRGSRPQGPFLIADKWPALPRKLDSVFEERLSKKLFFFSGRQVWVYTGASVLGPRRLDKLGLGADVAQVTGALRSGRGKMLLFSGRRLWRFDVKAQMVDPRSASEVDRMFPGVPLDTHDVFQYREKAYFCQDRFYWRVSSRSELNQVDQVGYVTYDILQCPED
Compound,IC50 (MMP-9),IC50 (MMP-13),IC50 (MMP-1),IC50 (MMP-2),Tube Formation ([1]; concentration 0.5 μM),Tube Formation ([1]; concentration 5 μM),Tube Formation ([1]; concentration 50 μM),Tube Formation ([1]; concentration 100 μM),IC50 (MMP-14)
"CCCCCCCCN1CC(C(=O)O)N(S(=O)(=O)c2ccc(NC(=O)c3ccc(Cl)cc3)cc2)CC1=O (stereo not drawn) [Example 60, 1-[4-(4-chloro-benzoylamino)-benzenesulfonyl]-4-octyl-5-oxo-piperazine-2-carboxylic acid]",3.2 nM,24 nM,18 nM,3 nM,+,++,++,–,–
"CCCCCCCCN1CC(C(=O)NO)N(S(=O)(=O)c2ccc(-c3ccc(Br)cc3)cc2)CC1=O (stereo not drawn) [Example 32, 1-(4′-Bromo-biphenyl-4-sulfonyl)-4-octyl-5-oxo-piperazine-2-hydroxamate]",1.3 nM,7 nM,16 nM,2 nM,–,++,+++,+++,–
"COc1ccc(S(=O)(=O)N2CC(=O)NCC2C(=O)NO)cc1 (stereo not drawn) [Example 5, 1-(4-Methoxy-benzenesulfonyl)-5-oxo-piperazine-2-hydroxamate]",12.4 nM,–,–,4 nM,–,±,+,++,28 nM
4-Benzyl-1-(4-methoxy-benzenesulfonyl)-5-oxo-piperazine-2-hydroxamate [Example 7],25 nM,18 nM,52 nM,7 nM,–,±,+,–,36 nM
